Assay results: ChEMBL document CHEMBL1201862, “PubChem BioAssay data set” (2004)
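Interpolation was linear, between the two tested concentrations surrounding the appropriate level; five concentrations were tested over 48 hours in 96-well plates. At the GI50, growth is halved.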 The source made the active and inactive calls. Cut-off read from the data, not from the text of the source: active = GI50 up to about 1.1 µM and inactive = higher.

What was measured:
Test in all cases: NCI-60 cell line screen, 48 h
EKVX = tested on: EKVX
HOP-92 = tested on: HOP-92
SK-MEL-2 = tested on: SK-MEL-2
TK-10 = tested on: TK-10
NCI-H460 = tested on: NCI-H460
HCC 2998 = tested on: HCC 2998
ACHN = tested on: ACHN
K562 = tested on: K562
MDA-MB-435 = tested on: MDA-MB-435
SK-OV-3 = tested on: SK-OV-3
NCI/ADR-RES = tested on: NCI/ADR-RES
OVCAR-8 = tested on: OVCAR-8
UO-31 = tested on: UO-31
OVCAR-5 = tested on: OVCAR-5
A549 = tested on: A549
SK-MEL-28 = tested on: SK-MEL-28
HL-60 = tested on: HL-60
UACC-257 = tested on: UACC-257
LOX IMVI = tested on: LOX IMVI
NCI-H522 = tested on: NCI-H522

**Q.** What does the source list for `COc1ccc2c(c1)CCCN2S(=O)(=O)c1ccccc1[N+](=O)[O-]`?
**A.** GI50 (EKVX): 56 µM (inactive); GI50 (HOP-92): 42.6 µM (inactive); GI50 (SK-MEL-2): 22.5 µM (inactive); GI50 (TK-10): 54.8 µM (inactive); GI50 (NCI-H460): 26 µM (inactive); GI50 (HCC 2998): 35.6 µM (inactive); GI50 (ACHN): 41.1 µM (inactive); GI50 (K562): 5.89 µM (inactive); GI50 (MDA-MB-435): 2.99 µM (inactive); GI50 (SK-OV-3): 24 µM (inactive); GI50 (NCI/ADR-RES): 19.2 µM (inactive); GI50 (OVCAR-8): 53.7 µM (inactive); GI50 (UO-31): 43 µM (inactive); GI50 (OVCAR-5): 84.3 µM (inactive); GI50 (A549): 53.7 µM (inactive); GI50 (SK-MEL-28): 68.5 µM (inactive); GI50 (HL-60): 4.56 µM (inactive); GI50 (UACC-257): 71.9 µM (inactive); GI50 (LOX IMVI): 32.4 µM (inactive); GI50 (NCI-H522): 26.7 µM (inactive)

**Q.** Which GI50 (EKVX) does the source give for `Cc1cccc(Nc2nc3ccccc3nc2NS(=O)(=O)c2ccc(N)cc2)c1` here?
**A.** 54.3 µM (inactive)

**Q.** And the GI50 (HOP-92)?
**A.** 40.3 µM (inactive)

**Q.** What about the GI50 (SK-MEL-2) of the same compound?
**A.** 24.9 µM (inactive)

**Q.** And the GI50 (TK-10)?
**A.** 32.5 µM (inactive)

**Q.** And the GI50 (NCI-H460)?
**A.** 32.5 µM (inactive)

**Q.** And the GI50 (HCC 2998)?
**A.** 30.9 µM (inactive)

**Q.** What about the GI50 (ACHN) of the same compound?
**A.** 32.2 µM (inactive)

**Q.** And the GI50 (K562)?
**A.** 25.2 µM (inactive)

**Q.** What about the GI50 (MDA-MB-435) of the same compound?
**A.** 38.6 µM (inactive)

**Q.** And the GI50 (SK-OV-3)?
**A.** 54.8 µM (inactive)

**Q.** What about the GI50 (NCI/ADR-RES) of the same compound?
**A.** 36.1 µM (inactive)

**Q.** And the GI50 (OVCAR-8)?
**A.** 39.6 µM (inactive)

**Q.** And the GI50 (UO-31)?
**A.** 16.2 µM (inactive)

**Q.** What about the GI50 (OVCAR-5) of the same compound?
**A.** > 100 µM (inactive)

**Q.** And the GI50 (A549)?
**A.** 23.8 µM (inactive)

**Q.** What about the GI50 (SK-MEL-28) of the same compound?
**A.** 27.7 µM (inactive)

**Q.** What about the GI50 (HL-60) of the same compound?
**A.** 28.1 µM (inactive)

**Q.** And the GI50 (UACC-257)?
**A.** 41.4 µM (inactive)

**Q.** What about the GI50 (LOX IMVI) of the same compound?
**A.** 52.1 µM (inactive)

**Q.** What about the GI50 (NCI-H522) of the same compound?
**A.** 18 µM (inactive)

**Q.** Which results are given for `CCOC(=O)c1nc2ccccc2nc1Nc1ccc(F)cc1`?
**A.** GI50 (EKVX): 16.5 µM (inactive); GI50 (HOP-92): 15.7 µM (inactive); GI50 (SK-MEL-2): 23.6 µM (inactive); GI50 (TK-10): 30.6 µM (inactive); GI50 (NCI-H460): 51.6 µM (inactive); GI50 (HCC 2998): > 100 µM (inactive); GI50 (ACHN): 27.5 µM (inactive); GI50 (K562): > 100 µM (inactive); GI50 (MDA-MB-435): > 100 µM (inactive); GI50 (SK-OV-3): 11.7 µM (inactive); GI50 (NCI/ADR-RES): 16.7 µM (inactive); GI50 (OVCAR-8): 11.5 µM (inactive); GI50 (UO-31): > 94.4 µM (inactive); GI50 (OVCAR-5): > 59.3 µM (inactive); GI50 (A549): 50.9 µM (inactive); GI50 (SK-MEL-28): > 100 µM (inactive); GI50 (HL-60): > 100 µM (inactive); GI50 (UACC-257): > 100 µM (inactive); GI50 (LOX IMVI): 79.4 µM (inactive); GI50 (NCI-H522): 20.4 µM (inactive)

**Q.** `COc1cc2c(cc1OCCCCOc1cc(-c3ccc(F)cc3)nc(C)n1)N=C[C@@H]1CCCN1C2=O` was tested. Which GI50 (EKVX) did it give?
**A.** 1.66 µM (inactive)

**Q.** What about the GI50 (HOP-92) of the same compound?
**A.** 0.443 µM (active)

**Q.** And the GI50 (SK-MEL-2)?
**A.** 0.853 µM (active)

**Q.** And the GI50 (TK-10)?
**A.** 0.224 µM (active)

**Q.** And the GI50 (NCI-H460)?
**A.** 0.413 µM (active)

**Q.** What about the GI50 (HCC 2998) of the same compound?
**A.** 0.029 µM (active)

**Q.** And the GI50 (ACHN)?
**A.** 0.189 µM (active)

**Q.** What about the GI50 (K562) of the same compound?
**A.** 0.267 µM (active)

**Q.** What about the GI50 (MDA-MB-435) of the same compound?
**A.** 0.652 µM (active)

**Q.** And the GI50 (SK-OV-3)?
**A.** 3.19 µM (inactive)

**Q.** What about the GI50 (NCI/ADR-RES) of the same compound?
**A.** 0.45 µM (active)

**Q.** And the GI50 (OVCAR-8)?
**A.** 0.989 µM (active)

**Q.** What about the GI50 (UO-31) of the same compound?
**A.** 0.5 µM (active)

**Q.** And the GI50 (OVCAR-5)?
**A.** 0.272 µM (active)

**Q.** And the GI50 (A549)?
**A.** 1.15 µM (inactive)

**Q.** And the GI50 (SK-MEL-28)?
**A.** 0.982 µM (active)

**Q.** What about the GI50 (HL-60) of the same compound?
**A.** 0.279 µM (active)

**Q.** And the GI50 (UACC-257)?
**A.** 0.692 µM (active)

**Q.** And the GI50 (LOX IMVI)?
**A.** 0.166 µM (active)

**Q.** And the GI50 (NCI-H522)?
**A.** 0.212 µM (active)

**Q.** What does the source list for `N#C[BH2-][n+]1cn(C2CC(OP(=O)(O)OCC3OC(n4ccc(N)nc4=O)CC3O)C(CO)O2)c2nc(N)[nH]c(=O)c21` (stereo not given)?
**A.** GI50 (EKVX): > 100 µM (inactive); GI50 (HOP-92): > 100 µM (inactive); GI50 (SK-MEL-2): > 100 µM (inactive); GI50 (TK-10): > 100 µM (inactive); GI50 (NCI-H460): > 100 µM (inactive); GI50 (HCC 2998): > 100 µM (inactive); GI50 (ACHN): > 100 µM (inactive); GI50 (K562): > 100 µM (inactive); GI50 (MDA-MB-435): > 100 µM (inactive); GI50 (SK-OV-3): > 100 µM (inactive); GI50 (NCI/ADR-RES): > 100 µM (inactive); GI50 (OVCAR-8): > 100 µM (inactive); GI50 (UO-31): > 100 µM (inactive); GI50 (OVCAR-5): > 100 µM (inactive); GI50 (A549): > 100 µM (inactive); GI50 (SK-MEL-28): > 100 µM (inactive); GI50 (HL-60): > 100 µM (inactive); GI50 (UACC-257): > 100 µM (inactive); GI50 (LOX IMVI): > 100 µM (inactive); GI50 (NCI-H522): > 100 µM (inactive)

**Q.** Which results are given for `Cc1ccnc2nc(-c3ccc(F)cc3)cc(O)c12`?
**A.** GI50 (EKVX): 79.6 µM (inactive); GI50 (HOP-92): 51.1 µM (inactive); GI50 (SK-MEL-2): 57.3 µM (inactive); GI50 (TK-10): > 97.3 µM (inactive); GI50 (NCI-H460): 13.2 µM (inactive); GI50 (HCC 2998): 60 µM (inactive); GI50 (ACHN): 68.1 µM (inactive); GI50 (K562): 5.55 µM (inactive); GI50 (MDA-MB-435): 3.15 µM (inactive); GI50 (SK-OV-3): > 86.9 µM (inactive); GI50 (NCI/ADR-RES): > 86.3 µM (inactive); GI50 (OVCAR-8): > 100 µM (inactive); GI50 (UO-31): > 70.5 µM (inactive); GI50 (OVCAR-5): > 100 µM (inactive); GI50 (A549): 54.2 µM (inactive); GI50 (SK-MEL-28): 77.3 µM (inactive); GI50 (HL-60): 5.97 µM (inactive); GI50 (UACC-257): > 92 µM (inactive); GI50 (LOX IMVI): 26.2 µM (inactive); GI50 (NCI-H522): 9.04 µM (inactive)

**Q.** Which GI50 (EKVX) does the source give for `COc1ccc2[nH]c3c(C)c4c(c(C)c3c2c1)CN(C)C=C4` here?
**A.** 2.49 µM (inactive)

**Q.** And the GI50 (HOP-92)?
**A.** 2.79 µM (inactive)

**Q.** What about the GI50 (SK-MEL-2) of the same compound?
**A.** 2.62 µM (inactive)

**Q.** And the GI50 (TK-10)?
**A.** 15.1 µM (inactive)

**Q.** And the GI50 (NCI-H460)?
**A.** 1.32 µM (inactive)

**Q.** What about the GI50 (HCC 2998) of the same compound?
**A.** 2.71 µM (inactive)

**Q.** And the GI50 (ACHN)?
**A.** 13.2 µM (inactive)

**Q.** What about the GI50 (K562) of the same compound?
**A.** 3.44 µM (inactive)

**Q.** And the GI50 (MDA-MB-435)?
**A.** 21.2 µM (inactive)

**Q.** And the GI50 (SK-OV-3)?
**A.** 7.23 µM (inactive)

**Q.** What about the GI50 (NCI/ADR-RES) of the same compound?
**A.** 91.8 µM (inactive)

**Q.** And the GI50 (OVCAR-8)?
**A.** 0.309 µM (active)

**Q.** And the GI50 (UO-31)?
**A.** 24.5 µM (inactive)

**Q.** What about the GI50 (OVCAR-5) of the same compound?
**A.** 7.57 µM (inactive)

**Q.** And the GI50 (A549)?
**A.** 0.873 µM (active)

**Q.** And the GI50 (SK-MEL-28)?
**A.** 3.44 µM (inactive)

**Q.** And the GI50 (HL-60)?
**A.** 22.4 µM (inactive)

**Q.** And the GI50 (UACC-257)?
**A.** 2.68 µM (inactive)

**Q.** What about the GI50 (LOX IMVI) of the same compound?
**A.** 9.77 µM (inactive)

**Q.** What about the GI50 (NCI-H522) of the same compound?
**A.** 1.2 µM (inactive)
